# ChEMBL document CHEMBL1201862, “PubChem BioAssay data set” (2004)
# Active and inactive are the calls of the source.
# Experiments:
# [1] = molecular target: Tyrosine-protein phosphatase non-receptor type 5 (Homo sapiens, UniProt P54829); assay: STEP phosphatase inhibitors, confirmation, biochemical, fluorescence intensity, uHTS hits (AID 602372); type: functional; conditions: read-out: IC50_Mean
# [2] = molecular target: Tyrosine-protein phosphatase non-receptor type 11 (Homo sapiens, UniProt Q06124); assay: SHP2 phosphatase inhibition, dose response, selectivity assay for STEP inhibitor project, biochemical (AID 602367); type: functional; conditions: read-out: IC50_Mean
# Chain of Tyrosine-protein phosphatase non-receptor type 11 (Q06124 whole entry): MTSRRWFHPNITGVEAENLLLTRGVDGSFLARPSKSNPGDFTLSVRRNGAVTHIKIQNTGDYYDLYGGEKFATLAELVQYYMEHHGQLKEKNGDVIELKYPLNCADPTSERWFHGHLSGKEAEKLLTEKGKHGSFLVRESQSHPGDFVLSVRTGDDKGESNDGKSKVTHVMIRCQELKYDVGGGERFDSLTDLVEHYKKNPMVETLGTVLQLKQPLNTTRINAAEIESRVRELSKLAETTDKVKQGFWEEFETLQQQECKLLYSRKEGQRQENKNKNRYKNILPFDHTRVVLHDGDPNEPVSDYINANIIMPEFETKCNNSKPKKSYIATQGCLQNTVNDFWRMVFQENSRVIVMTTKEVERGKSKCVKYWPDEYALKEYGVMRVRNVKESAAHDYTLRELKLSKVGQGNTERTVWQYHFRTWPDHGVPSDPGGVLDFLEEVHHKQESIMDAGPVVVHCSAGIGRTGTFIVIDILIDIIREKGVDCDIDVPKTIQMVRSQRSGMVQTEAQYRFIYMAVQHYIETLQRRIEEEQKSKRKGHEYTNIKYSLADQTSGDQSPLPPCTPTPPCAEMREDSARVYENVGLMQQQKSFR
# [3] = molecular target: Dual specificity protein phosphatase 3 (Homo sapiens, UniProt P51452); assay: VHR phosphatase inhibition, dose response, selectivity assay for STEP inhibitor project, biochemical (AID 602374); type: functional; conditions: read-out: IC50_Mean
# Chain of Dual specificity protein phosphatase 3 (P51452 whole entry): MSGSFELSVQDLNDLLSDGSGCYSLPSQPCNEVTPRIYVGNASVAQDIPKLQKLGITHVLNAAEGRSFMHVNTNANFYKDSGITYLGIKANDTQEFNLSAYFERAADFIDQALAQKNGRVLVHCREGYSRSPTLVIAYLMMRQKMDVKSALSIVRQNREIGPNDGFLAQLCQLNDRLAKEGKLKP
# Phospholipase A2 = Phospholipase A2 (Homo sapiens, UniProt P04054); type: functional;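 also: confirmatory dose-response counterscreen on phospholipase A2, testing hits that came from an ultra-high-throughput screen for ATG4B inhibitors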
# Chain of Phospholipase A2 (P04054 whole entry): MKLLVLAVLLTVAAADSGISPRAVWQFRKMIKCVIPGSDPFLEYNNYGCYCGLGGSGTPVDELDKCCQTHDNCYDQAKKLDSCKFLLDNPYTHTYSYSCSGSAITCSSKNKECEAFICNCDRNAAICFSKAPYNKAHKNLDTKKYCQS
# [4] = system: Streptococcus sp. 'group A'; assay: growth inhibition of control SK(-) GAS strain, dose response, counter-screen for streptokinase expression inhibitor project, luminescence, kanamycin, BacTiterGlo, confirmation (AID 1900); type: functional, organism-based
# Prothrombin = Prothrombin (Bos taurus, UniProt P00735); assay: thrombin inhibition, dose response, biochemical, fluorescence polarization, uHTS hits (AID 602369); type: functional
# Streptococcus = assay: Group A Streptococcus viability loss, dose response, counter-screen for streptokinase expression inhibitor project, luminescence, BacTiterGlo (AID 1915); type: functional, organism-based;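 also: potency for reduction of bacterial viability or growth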
# [5] = molecular target: 26S proteasome non-ATPase regulatory subunit 14 (Homo sapiens, UniProt O00487); assay: inhibition of proteasome subunit RPN11 – biochemical, fluorescence polarization, uHTS hits, confirmation (AID 602368); type: functional
# Chain of 26S proteasome non-ATPase regulatory subunit 14 (O00487 whole entry): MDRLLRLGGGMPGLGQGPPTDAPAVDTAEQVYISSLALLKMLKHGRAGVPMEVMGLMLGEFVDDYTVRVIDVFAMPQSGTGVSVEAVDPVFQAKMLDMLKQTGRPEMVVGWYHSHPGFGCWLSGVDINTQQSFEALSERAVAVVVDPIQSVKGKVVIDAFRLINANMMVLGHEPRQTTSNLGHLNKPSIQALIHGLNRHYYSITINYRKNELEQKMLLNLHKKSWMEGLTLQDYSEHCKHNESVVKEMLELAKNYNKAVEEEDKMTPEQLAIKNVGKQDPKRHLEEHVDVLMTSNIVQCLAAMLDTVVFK
# [6] = molecular target: 72 kDa type IV collagenase (Homo sapiens, UniProt P08253); assay: Dose Response validation of uHTS RPN11 inhibitor hits using a MMP-2 Fluorescence assay.; type: functional
# Cysteine protease ATG4B = molecular target: T1, Cysteine protease ATG4B (Homo sapiens, UniProt Q9Y4P1); type: functional;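 also: Fluorescence-based dose-response confirmation assay measuring inhibition of ATG4B activity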
# T1 sequence (Q9Y4P1 whole entry): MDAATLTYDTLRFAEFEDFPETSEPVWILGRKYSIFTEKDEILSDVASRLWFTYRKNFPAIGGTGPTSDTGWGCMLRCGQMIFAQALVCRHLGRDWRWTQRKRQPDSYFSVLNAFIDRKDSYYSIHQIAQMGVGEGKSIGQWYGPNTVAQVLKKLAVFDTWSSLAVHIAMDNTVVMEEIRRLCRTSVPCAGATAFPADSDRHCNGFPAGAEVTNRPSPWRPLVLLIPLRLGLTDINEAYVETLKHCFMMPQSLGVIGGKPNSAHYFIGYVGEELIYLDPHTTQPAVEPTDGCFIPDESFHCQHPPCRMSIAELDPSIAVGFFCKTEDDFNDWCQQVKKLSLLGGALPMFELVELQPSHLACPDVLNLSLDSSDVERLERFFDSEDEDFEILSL
# [7] = molecular target: DNA (cytosine-5)-methyltransferase 1 (Homo sapiens, UniProt P26358); assay: DNMT1 methyltransferase inhibitors, confirmation, biochemical, fluorescent molecular beacon (AID 602386); type: functional
# [8] = molecular target: T2, Mitochondrial peptide methionine sulfoxide reductase (Bos taurus, UniProt P54149); assay: Absorbance-based biochemical high throughput dose response assay for activators of Methionine sulfoxide reductase A (MsrA).; type: functional
# T2 sequence (P54149 whole entry): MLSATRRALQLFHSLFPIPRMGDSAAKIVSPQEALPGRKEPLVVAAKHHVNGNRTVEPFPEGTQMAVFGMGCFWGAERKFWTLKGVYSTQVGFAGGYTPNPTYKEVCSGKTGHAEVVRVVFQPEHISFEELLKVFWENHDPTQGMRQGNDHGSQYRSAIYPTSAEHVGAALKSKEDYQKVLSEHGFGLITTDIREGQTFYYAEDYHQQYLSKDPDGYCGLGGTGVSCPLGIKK
# Albumin = Albumin (Bos taurus, UniProt P02769); assay: Counterscreen for inhibitors of T-cell receptor (TCR)-CD3 interaction: Fluorescence-based biochemical high throughput dose response assay to identify inhibitors of T-cell receptor (TCR)-CD3 interaction using a TAMRA-labeled BSA probe.; type: functional
# Chain of Albumin (P02769 whole entry): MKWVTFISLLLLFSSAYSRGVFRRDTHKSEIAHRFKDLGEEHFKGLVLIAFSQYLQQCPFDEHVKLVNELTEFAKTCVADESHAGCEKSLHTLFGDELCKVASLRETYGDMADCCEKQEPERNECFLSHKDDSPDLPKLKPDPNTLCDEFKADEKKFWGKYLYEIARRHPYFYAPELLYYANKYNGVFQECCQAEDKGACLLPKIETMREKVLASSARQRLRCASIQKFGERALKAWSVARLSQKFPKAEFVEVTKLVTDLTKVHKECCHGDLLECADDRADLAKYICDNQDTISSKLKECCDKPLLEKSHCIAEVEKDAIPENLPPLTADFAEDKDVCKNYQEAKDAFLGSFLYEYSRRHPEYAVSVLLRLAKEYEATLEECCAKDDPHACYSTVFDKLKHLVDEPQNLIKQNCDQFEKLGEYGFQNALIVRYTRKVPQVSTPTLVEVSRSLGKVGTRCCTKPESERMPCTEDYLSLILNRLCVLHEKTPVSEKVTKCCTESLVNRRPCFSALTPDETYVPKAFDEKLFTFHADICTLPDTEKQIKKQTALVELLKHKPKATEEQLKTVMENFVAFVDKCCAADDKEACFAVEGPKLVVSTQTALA
# [9] = molecular target: T3, Low molecular weight phosphotyrosine protein phosphatase (Homo sapiens, UniProt P24666); type: functional; conditions: read-out: IC50_Mean;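 also: Dose-response confirmation assay measuring inhibition of LMPTP enzyme activity by fluorescence intensity read-out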
# T3 sequence (P24666 whole entry): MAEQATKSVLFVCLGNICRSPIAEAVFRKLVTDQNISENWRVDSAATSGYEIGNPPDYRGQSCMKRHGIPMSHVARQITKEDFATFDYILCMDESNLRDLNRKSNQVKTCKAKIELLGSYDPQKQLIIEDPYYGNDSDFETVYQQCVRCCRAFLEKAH
# [10] = molecular target: T4, DNA repair protein RAD52 homolog (Homo sapiens, UniProt P43351); type: functional, biochemical
# T4 sequence (P43351 whole entry): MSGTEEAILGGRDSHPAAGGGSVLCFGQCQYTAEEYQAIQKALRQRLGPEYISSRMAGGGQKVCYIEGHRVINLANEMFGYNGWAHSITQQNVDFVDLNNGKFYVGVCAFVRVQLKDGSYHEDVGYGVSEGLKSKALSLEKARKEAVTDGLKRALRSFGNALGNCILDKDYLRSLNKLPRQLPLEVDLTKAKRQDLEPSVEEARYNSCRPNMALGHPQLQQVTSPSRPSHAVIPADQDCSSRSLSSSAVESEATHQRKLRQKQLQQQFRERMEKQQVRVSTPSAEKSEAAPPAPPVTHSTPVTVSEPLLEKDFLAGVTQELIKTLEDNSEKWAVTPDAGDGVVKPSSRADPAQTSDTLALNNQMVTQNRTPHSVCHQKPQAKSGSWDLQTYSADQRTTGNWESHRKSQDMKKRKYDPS
# [11] = molecular target: T5, Ubiquitin-conjugating enzyme E2 N (Homo sapiens, UniProt P61088); type: functional;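 also: Dose-response confirmation in a TR-FRET assay detecting UBC13-driven polyubiquitin chain formation, inhibition measured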
# T5 sequence (P61088 whole entry): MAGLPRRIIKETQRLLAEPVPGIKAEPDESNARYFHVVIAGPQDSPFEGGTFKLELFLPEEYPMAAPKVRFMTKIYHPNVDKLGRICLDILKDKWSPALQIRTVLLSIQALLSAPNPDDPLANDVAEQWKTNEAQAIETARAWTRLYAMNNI
# [12] = molecular target: T6, Sentrin-specific protease 6 (Homo sapiens, UniProt Q9GZR1); type: functional;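 also: Luminescence-based dose-response confirmatory assay of SENP6 inhibition, following up an ultra-high-throughput screen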
# T6 sequence (Q9GZR1 whole entry): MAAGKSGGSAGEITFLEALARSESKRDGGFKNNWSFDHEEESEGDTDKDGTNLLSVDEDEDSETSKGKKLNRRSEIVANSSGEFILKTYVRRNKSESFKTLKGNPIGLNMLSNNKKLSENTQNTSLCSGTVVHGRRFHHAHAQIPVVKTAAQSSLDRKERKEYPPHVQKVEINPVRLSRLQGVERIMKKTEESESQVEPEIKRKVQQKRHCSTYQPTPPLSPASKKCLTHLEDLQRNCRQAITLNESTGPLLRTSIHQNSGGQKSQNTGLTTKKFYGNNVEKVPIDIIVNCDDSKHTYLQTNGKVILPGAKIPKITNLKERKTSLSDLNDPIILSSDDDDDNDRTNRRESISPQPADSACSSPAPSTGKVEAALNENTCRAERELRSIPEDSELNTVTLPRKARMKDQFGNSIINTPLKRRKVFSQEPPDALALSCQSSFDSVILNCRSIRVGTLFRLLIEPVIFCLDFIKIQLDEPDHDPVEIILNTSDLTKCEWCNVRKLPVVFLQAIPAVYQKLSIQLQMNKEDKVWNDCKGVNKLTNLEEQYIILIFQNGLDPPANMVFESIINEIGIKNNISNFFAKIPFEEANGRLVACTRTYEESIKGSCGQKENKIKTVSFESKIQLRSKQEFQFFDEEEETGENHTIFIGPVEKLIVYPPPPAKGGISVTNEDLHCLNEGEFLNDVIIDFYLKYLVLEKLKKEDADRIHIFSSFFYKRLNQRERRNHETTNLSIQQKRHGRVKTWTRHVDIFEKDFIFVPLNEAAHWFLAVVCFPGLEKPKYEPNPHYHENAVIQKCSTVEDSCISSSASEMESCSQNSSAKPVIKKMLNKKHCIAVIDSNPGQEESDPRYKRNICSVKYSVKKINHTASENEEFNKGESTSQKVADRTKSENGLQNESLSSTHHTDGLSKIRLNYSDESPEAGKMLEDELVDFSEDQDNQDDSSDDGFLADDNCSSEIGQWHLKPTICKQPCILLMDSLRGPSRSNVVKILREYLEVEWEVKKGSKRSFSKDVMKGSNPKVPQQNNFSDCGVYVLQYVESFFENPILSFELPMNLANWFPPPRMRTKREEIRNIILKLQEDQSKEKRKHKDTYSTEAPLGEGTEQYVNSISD
# [13] = molecular target: T7, Sentrin-specific protease 8 (Homo sapiens, UniProt Q96LD8); type: functional;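 also: luminescence read-out of SENP8 inhibition, dose-response confirmation following an ultra-high-throughput screen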
# T7 sequence (Q96LD8 whole entry): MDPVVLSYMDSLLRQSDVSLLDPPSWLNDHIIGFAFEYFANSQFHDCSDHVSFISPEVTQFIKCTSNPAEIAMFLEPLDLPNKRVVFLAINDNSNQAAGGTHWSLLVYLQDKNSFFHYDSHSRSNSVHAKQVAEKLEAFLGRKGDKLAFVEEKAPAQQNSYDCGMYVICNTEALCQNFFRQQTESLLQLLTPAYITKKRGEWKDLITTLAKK
# Caspase-3 = molecular target: T8, Caspase-3 (Homo sapiens, UniProt P42574); type: functional;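 also: Dose-response selectivity test against caspase-3 for candidate inhibitors of sentrin-specific proteases (SENPs)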
# T8 sequence (P42574 whole entry): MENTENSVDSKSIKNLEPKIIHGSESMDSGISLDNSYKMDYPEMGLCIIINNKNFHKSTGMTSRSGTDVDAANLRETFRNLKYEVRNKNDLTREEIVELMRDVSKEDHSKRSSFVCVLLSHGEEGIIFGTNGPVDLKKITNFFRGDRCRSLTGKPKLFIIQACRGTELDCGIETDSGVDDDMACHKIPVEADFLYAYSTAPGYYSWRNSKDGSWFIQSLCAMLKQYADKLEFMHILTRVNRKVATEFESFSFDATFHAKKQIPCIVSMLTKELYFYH
# [14] = molecular target: T9, Sentrin-specific protease 7 (Homo sapiens, UniProt Q9BQF6); type: functional;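 also: Luminescence-based dose-response confirmation of ultra-high-throughput screening hits, measuring inhibition of SENP7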
# T9 sequence (Q9BQF6 whole entry): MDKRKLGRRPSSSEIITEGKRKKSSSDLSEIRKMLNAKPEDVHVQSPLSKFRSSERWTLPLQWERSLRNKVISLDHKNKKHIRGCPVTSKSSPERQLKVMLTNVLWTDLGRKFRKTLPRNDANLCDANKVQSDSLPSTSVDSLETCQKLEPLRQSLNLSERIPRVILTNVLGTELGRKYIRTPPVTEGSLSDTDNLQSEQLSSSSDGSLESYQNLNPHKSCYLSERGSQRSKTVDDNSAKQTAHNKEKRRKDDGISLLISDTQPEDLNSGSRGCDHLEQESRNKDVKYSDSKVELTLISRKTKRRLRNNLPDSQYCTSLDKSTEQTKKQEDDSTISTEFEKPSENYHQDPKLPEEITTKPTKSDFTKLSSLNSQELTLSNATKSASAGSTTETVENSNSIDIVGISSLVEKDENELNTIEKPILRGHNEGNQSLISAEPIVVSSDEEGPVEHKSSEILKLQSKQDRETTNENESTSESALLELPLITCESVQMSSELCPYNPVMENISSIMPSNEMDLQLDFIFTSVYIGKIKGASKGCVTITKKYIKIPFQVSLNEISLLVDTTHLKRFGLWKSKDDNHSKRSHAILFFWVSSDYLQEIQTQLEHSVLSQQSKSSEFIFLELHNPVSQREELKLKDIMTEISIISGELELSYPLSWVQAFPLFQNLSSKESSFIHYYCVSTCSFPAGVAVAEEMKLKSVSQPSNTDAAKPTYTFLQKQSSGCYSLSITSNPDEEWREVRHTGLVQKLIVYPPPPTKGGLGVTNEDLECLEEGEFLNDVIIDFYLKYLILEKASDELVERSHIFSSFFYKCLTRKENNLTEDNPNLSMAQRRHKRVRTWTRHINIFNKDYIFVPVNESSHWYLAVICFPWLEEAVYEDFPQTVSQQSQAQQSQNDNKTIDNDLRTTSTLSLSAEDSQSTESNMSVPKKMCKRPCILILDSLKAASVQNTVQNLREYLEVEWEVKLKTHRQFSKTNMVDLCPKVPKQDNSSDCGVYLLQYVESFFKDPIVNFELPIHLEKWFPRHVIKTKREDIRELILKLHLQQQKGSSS
# [15] = molecular target: Voltage-dependent T-type calcium channel subunit alpha-1H (Homo sapiens, UniProt O95180); type: functional;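 also: channel activity triggered by adding a high calcium stimulation buffer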
# Chain of Voltage-dependent T-type calcium channel subunit alpha-1H (O95180 whole entry): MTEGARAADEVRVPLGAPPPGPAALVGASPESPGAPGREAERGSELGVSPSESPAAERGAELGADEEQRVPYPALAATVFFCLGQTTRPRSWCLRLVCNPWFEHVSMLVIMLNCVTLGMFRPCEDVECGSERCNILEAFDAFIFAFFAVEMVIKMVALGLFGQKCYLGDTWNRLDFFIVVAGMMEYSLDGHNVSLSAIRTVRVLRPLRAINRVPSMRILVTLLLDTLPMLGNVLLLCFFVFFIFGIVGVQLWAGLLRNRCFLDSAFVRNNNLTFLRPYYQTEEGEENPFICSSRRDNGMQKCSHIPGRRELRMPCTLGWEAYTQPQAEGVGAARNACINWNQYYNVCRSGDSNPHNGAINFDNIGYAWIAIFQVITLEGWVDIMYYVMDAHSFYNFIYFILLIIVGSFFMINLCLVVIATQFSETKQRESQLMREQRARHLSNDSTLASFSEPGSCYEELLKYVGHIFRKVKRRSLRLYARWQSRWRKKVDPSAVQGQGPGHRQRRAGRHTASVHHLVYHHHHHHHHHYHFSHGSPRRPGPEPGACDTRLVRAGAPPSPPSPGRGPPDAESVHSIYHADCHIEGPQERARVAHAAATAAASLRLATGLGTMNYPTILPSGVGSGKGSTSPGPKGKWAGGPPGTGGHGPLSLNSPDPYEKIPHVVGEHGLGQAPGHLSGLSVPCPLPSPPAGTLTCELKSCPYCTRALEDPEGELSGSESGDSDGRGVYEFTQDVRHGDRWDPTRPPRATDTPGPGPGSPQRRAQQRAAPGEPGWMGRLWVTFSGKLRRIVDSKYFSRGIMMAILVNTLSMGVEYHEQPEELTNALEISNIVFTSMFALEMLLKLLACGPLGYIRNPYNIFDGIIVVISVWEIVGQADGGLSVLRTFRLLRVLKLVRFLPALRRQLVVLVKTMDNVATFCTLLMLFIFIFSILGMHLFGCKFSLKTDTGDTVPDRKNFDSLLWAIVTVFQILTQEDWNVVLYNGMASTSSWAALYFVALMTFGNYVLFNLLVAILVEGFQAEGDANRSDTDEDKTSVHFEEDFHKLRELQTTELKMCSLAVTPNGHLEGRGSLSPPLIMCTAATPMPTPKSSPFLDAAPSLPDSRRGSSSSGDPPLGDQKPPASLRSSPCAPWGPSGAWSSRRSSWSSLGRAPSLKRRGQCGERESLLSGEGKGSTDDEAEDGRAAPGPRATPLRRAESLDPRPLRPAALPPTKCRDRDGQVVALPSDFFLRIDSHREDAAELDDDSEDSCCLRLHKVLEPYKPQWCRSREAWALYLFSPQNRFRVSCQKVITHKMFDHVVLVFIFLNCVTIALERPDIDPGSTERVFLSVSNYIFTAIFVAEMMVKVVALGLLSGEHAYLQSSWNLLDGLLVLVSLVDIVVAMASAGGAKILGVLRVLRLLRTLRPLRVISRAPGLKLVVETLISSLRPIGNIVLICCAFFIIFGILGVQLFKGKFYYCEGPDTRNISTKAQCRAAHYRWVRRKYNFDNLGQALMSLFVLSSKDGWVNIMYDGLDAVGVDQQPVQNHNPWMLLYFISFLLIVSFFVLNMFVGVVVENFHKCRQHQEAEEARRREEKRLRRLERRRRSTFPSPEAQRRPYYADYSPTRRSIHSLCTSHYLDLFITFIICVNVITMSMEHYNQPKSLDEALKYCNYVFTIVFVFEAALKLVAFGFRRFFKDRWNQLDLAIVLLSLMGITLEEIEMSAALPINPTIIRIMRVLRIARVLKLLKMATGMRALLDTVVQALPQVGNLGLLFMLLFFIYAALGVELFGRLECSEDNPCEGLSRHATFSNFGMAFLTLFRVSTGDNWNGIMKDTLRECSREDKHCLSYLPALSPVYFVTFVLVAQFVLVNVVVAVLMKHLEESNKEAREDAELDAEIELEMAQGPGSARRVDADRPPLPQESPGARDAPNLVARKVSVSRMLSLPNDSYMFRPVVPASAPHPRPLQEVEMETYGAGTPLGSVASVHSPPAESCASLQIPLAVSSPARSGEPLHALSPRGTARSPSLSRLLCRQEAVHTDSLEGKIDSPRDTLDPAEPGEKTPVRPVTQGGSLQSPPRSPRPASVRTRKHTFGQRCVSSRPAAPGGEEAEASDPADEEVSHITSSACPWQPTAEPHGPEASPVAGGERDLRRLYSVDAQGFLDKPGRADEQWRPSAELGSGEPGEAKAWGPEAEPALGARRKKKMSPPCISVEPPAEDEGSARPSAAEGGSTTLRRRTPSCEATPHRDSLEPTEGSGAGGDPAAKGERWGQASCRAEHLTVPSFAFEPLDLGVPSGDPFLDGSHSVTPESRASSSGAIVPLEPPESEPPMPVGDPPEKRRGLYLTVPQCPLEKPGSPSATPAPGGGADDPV
# Cytochrome P450 2D6 = Cytochrome P450 2D6 (Homo sapiens, UniProt P10635);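 also: CYP2D6 member of a cytochrome P450 panel assay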
# Chain of Cytochrome P450 2D6 (P10635 whole entry): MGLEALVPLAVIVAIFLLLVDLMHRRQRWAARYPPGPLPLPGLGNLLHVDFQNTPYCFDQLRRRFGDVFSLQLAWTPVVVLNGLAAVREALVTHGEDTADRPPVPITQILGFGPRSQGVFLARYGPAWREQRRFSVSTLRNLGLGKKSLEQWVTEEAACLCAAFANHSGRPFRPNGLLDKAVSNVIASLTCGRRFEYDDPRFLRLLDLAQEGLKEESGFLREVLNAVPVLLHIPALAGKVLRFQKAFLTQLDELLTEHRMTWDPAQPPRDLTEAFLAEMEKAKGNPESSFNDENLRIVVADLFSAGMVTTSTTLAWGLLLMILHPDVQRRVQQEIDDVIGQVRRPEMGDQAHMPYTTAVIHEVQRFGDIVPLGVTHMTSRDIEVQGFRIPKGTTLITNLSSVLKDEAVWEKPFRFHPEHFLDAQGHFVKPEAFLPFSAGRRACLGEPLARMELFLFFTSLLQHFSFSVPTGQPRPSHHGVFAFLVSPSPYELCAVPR
# [16] = molecular target: DNA repair and recombination protein RAD54-like (Homo sapiens, UniProt Q92698); assay: inhibitors of human RAD54 branch migration, confirmation, biochemical, fluorescence, cherry-picked samples, dose series (AID 651657); type: functional
structure (smiles),measurement,setting,value
COc1cc(Cl)ccc1N=C(S)N(CCCN1CCOCC1)Cc1cn(C)c2ccccc12,IC50,[1],20.8 µM (inactive)
same,IC50,[2],2.07 µM (active)
same,IC50,[3],1.03 µM (active)
Oc1nc(Nc2ccc(Cl)cc2Cl)sc1/C=C1\C=Nc2ccccc21,IC50,Phospholipase A2,1.5 µM (active)
same,EC50,[4],1.27 µM (active)
same,IC50,Prothrombin,38.3 µM (active)
same,EC50,Streptococcus,2.61 µM (active)
same,IC50,[5],36.5 µM (active)
same,IC50,[6],> 100 µM (inactive)
same,IC50,Cysteine protease ATG4B,2.64 µM (active)
O=C1Nc2c(Cl)cc(Cl)cc2C1=O,IC50,[7],11.8 µM (active)
same,EC50,[8],> 104 µM (inactive)
Cc1ccc(-c2nc3cc(C(=O)NCCCn4ccnc4)ccc3c(O)c2O)cc1,IC50,Albumin,> 94.1 µM (inactive)
same,IC50,[9],16 µM (active)
same,AC50,[10],7.05 µM (active)
same,IC50,[11],> 20 µM (inactive)
COc1ccc(S(=O)(=O)N2CCOCC2)cc1NC(=O)COC(=O)c1ccc([N+](=O)[O-])s1,IC50,[12],6.27 µM (active)
same,IC50,[13],6.06 µM (active)
same,EC50,[8],40 µM (inactive)
same,IC50,Caspase-3,17.1 µM (active)
same,IC50,[14],9.28 µM (active)
Cc1ccccc1NC(=O)/C(=C/c1ccccc1)c1ccccc1,IC50,Phospholipase A2,9.58 µM (active)
same,EC50,[15],9.09 µM (active)
same,AC50,Cytochrome P450 2D6,14.1 µM (inconclusive)
same,IC50,Cysteine protease ATG4B,10.8 µM (active)
O=C(Nc1ccccc1)c1cc(S(=O)(=O)N2CCOCC2)cs1,AC50,[16],70.3 µM (active)
